{"source": "paper PMC7830118", "about": "“Synthesis and Biological Evaluation of ^99mTc(I) Tricarbonyl Complexes Dual-Targeted at Tumoral Mitochondria” (Molecules, 2021)", "origin": "cited, not measured here", "tested_on": "mitochondria fraction isolated from rat myocardium", "experimental": "The ^99mTc-BBN complex accumulates to a low extent (0.19 to 0.24%) in mitochondria when compared with the TPP-containing complexes. […] The highest mitochondrial uptake (0.84 ± 0.06%) was found for the dual-targeted complex, ^99mTc-TPP-BBN, after 2 h of incubation. The measured uptakes are relative values that were obtained in the same manner and, therefore, reflect the mitotropic properties of each complex. However, it is worthwhile to mention that in these ...", "data": [{"smiles": "[99Tc].[C-]#[N+]CC(C)(C)OC.[C-]#[N+]CC(C)(C)OC.[C-]#[N+]CC(C)(C)OC.[C-]#[N+]CC(C)(C)OC.[C-]#[N+]CC(C)(C)OC.[C-]#[N+]CC(C)(C)OC", "note": "[^99mTc-MIBI]", "values": [{"measurement": "Mitochondrial uptake after correction for mitochondria in other cellular fractions", "setting": "correction with CCCP and malate dehydrogenase activity", "value": 68, "unit": "%"}, {"measurement": "Measured mitochondrial uptake (accumulation in the mitochondria fraction), uncorrected", "setting": "mitochondria fraction isolated from rat myocardium", "value": 2.38, "unit": "%"}]}]}
